Measurements taken from patent publication US5036050A, “Compositions containing thymopentin for topical treatment of skin disorders” (Immunobiology Research Institute, Inc., priority 1989, dated 1991).
Where no end group is shown, it is not given here.

Tested on: neuromuscular transmission
Assay: Neuromuscular assay (electromyography after topical application)
Type: in vivo, guinea pigs
Details: 18 hours later
Protocol: To determine the effect of different formulations and dosages of compositions according to the invention, varying amounts of topical TP5 compositions prepared as described in Example 1B, were applied to the skin of guinea pigs.
A 11/2"×11/2" square section was shaved on each animal's back 24 hours before the application of the thymopentin composition. Four concentrations of thymopentin cream were used (10%, 5%, 2.5% and 1.25%) using Unibase® as a diluent. A total of 100 mg of cream containing either 10 mg, 5 mg, 2.5 mg or 1.25 mg thymopentin was rubbed with a spatula on the shaved skin of each animal. Control animals were treated similarly with the Unibase® carrier only.
Eighteen hours later the neuromuscular transmission of each group of five animals for each concentration was assessed by electromyography as described in Lancet, 12:256-259 (1975).

Substance: RKDVY [thymopentin]
- neuromuscular change compared to control animals (5% thymopentin cream in Unibase, 100 mg cream (5 mg thymopentin) on shaved skin): Significant neuromuscular change
- neuromuscular change compared to control animals (10% thymopentin cream in Unibase, 100 mg cream (10 mg thymopentin) on shaved skin): Significant neuromuscular change
